# Measurements: patent publication US11904025B2, “Cyclophanes for live-cell imaging” (Northwestern University, priority 2018, dated 2024)
# “Also recorded” adds a separate entry of the source.
# Assays:
# [1] = system: RAW 264.7 cells; experiment: MTT assay, cell viability after 24 h incubation; settings: for cell viability: RAW 264.7 cells, 100 μM loading concentration, 24 h incubation
# Method: Cell culture: Murine macrophages (RAW 264.7 cells) that were obtained from the American Type Culture Collection (ATCC, Rockville, MD, USA) were utilized for cell culture experiments.
# After 24 h incubation, each well was added with MTT (5 mg/ml in PBS, 10 μL) and then incubated for 4 h. The media from each well was pipetted out, formazan crystals deposited on the plate were dissolved in 200 μL of dimethyl sulfoxide and the absorbance of each well was measured using a microplate reader at 560 nm.
# All the samples were analyzed in quadruplicates. The percentage cell viability was then calculated using the formula: % cell viability=(OD of treated sample/OD of the untreated sample)*100.
# [2] = system: RAW 264.7 macrophages; experiment: Live cell confocal microscopy; assay type: cell-based, Murine; settings: for fluorescence inside cells after incubation: RAW 264.7 cells, 4 h incubation (6·4Cl 20 μM in PBS); for photobleaching inside cells under imaging conditions: blue laser excitation
# Method: RAW 264.7 macrophages (1×10^5 cells/mL, 475 μL) were plated in each well of a 4 well p-slide (ibidi cell focus) and cultured overnight. […] After incubation, cells were washed with phenol free DMEM and stained with LysoTracker green (lysosome stain) or SYTO nuclei (nuclear stain) at 1:10,000 dilutions. Controls used were cells added with only stains, cells only and cells with materials only. Plated cells were imaged within a humidified chamber using a 100× oil-immersion objective on an SP5 Leica Confocal Microscope using HyD detectors and lasers: 405 nm diode laser for material, 561 nm HeNe laser for Lysotracker green, and 633 nm HeNe laser for SYTO 61.
# [3] = Absolute fluorescence quantum yield; assay type: physicochemical; settings: in H2O
# Method: (§1) UV/Vis Absorption spectra were recorded using a UV-3600 Shimadzu spectrophotometer. Steady-state emission spectra were acquired using HORIBA Nanolog spectrofluorimeter equipped with an integrating sphere for absolute photoluminescence quantum yield determination and time-correlated single-photon counting (TCSPC) module for emission decays of 4·2Cl in H2O. The time-resolved fluorescence (TRF) measurement of 6·4Cl in H2O was carried out with a streak camera system (Hamamatsu C4334 Streakscope).
# [4] = Solubility; settings: H2O
# [5] = UV light photobleaching / photostability in solution; assay type: physicochemical
# Method: Samples were irradiated with a 18 W LED UV flashlight (395 nm, Hinmay super bright LED). They were immersed in a 23±1° C. water bath during irradiation periods. (FIG. 5A-5B)
# [6] = system: RAW 264.7 macrophages; experiment: Phototoxicity studies (irradiation, then Calcein AM viability); assay type: cell-based, Murine; settings: RAW 264.7 cells, different concentrations, light 410 nm, 25 mW, 15 min
# Method: After 24 h incubation, wells were washed with PBS, added with 100 μL of DMEM and immediately irradiated with visible light using Max-303 Xenon Light Source (410 nm, Asahi Spectra) at a light intensity of […] for 15 min. Following irradiation cells were incubated overnight and viability was measured using Calcein AM as described above.
# [7] = system: RAW 264.7 macrophages; experiment: Calcein AM cell viability assay; assay type: cell-based, Murine; settings: RAW 264.7 cells, 24 h incubation, 1.56-100 μM
# Method: After 24 h of incubation, cells were washed twice with PBS, added with Calcein AM (1 μM, 100 μL in PBS) to each well and then incubated for 1 h in the dark. […] The measured fluorescence intensity (FI) is proportional to the number of viable cells.
# [8] = Fluorescence at different pH and in serum; assay type: physicochemical
# Method: as §1
smiles,measurement,setting,value
"C[n+]1ccc(-c2ccc(-c3cc[n+](C)cc3)cc2)cc1 [2·2Cl, Me2ExBIPY·2Cl]",cell viability,[1],68%
"C[n+]1ccc(-c2nc3sc(-c4cc[n+](C)cc4)nc3s2)cc1 [4·2Cl, 4,4′-(Thiazolo[5,4-d]thiazole-2,5-diyl)bis(1-methylpyridinium), reference compound]",fluorescence inside cells after incubation,[2],only a little fluorescence
same,fluorescence inside cells after incubation,[2]; listed as Me2TzBIPY·2Cl,very little fluorescence
same,photobleaching inside cells under imaging conditions,[2]; RAW 264.7 macrophages,quenched completely
same,time until fluorescence inside the cells is quenched,[2]; laser irradiation under imaging conditions,≤ 3 s
same,fluorescence quantum yield ΦF,[3],0.95
same,water solubility,[4],Water soluble
same,cell viability,[1],~75%
"c1cc2ccc1C[n+]1ccc(cc1)-c1ccc(cc1)-c1cc[n+](cc1)Cc1ccc(cc1)C[n+]1ccc(cc1)-c1nc3sc(nc3s1)-c1cc[n+](cc1)C2 [6·4Cl, ExTz·4Cl]",photostability in H2O,"[5]; H2O, several months under natural daylight",extremely photostable
same,loss of absorbance intensity on UV irradiation (photobleaching),"[5]; UV flashlight 18 W, 395 nm, 60 min",a little loss of absorbance intensity
same,fluorescence inside cells after incubation,[2],brilliant blue emission
same,photobleaching inside cells under imaging conditions,[2]; RAW 264.7 macrophages,without any hint of photobleaching
same,cellular uptake,"[2]; RAW 264.7 macrophages, confocal microscopy, listed as 6^4+",efficiently taken up
same,fluorescence brightness inside the cells relative to reference 4^2+,[2]; live cells,six times brighter
same,cellular localization,"[2]; living macrophages, co-incubation with LysoTracker green",enters the lysosomes
same,phototoxicity,[6],no phototoxicity
same,cell viability by Calcein AM versus MTT result,[7],confirmed
same,fluorescence quantum yield ΦF,[3],1.00
same,fluorescence quantum yield ΦF,[3]; listed as 6^4+,unity
same,water solubility,[4],highly water-soluble
same,fluorescence in serum compared with water,[8]; 10% Fetal bovine serum,slightly lower fluorescence intensity
same,change of fluorescence characteristics with pH,[8]; pH=1 to 7,without any change
same,cytotoxicity (in words),"[1]; RAW 264.7 macrophages, loading concentration as high as 100 μM",non-cytotoxic; also recorded: less cytotoxic
"c1cc2ccc1C[n+]1ccc(cc1)-c1cc[n+](cc1)Cc1ccc(cc1)C[n+]1ccc(cc1)-c1cc[n+](cc1)C2 [BlueBox, BlueBox·4Cl]",cell viability,[1],over 96%
"C[n+]1ccc(-c2cc[n+](C)cc2)cc1 [paraquat, dimethyl viologen]",cell viability,[1],~63%
